Test results published in ChEMBL document CHEMBL1833803, “Discovery of 1-amino-5H-pyrido[4,3-b]indol-4-carboxamide inhibitors of Janus kinase 2 (JAK2) for the treatment of myeloproliferative disorders” (J Med Chem, 2011).

Legend:
[1] = molecular target: Tyrosine-protein kinase JAK2 (Homo sapiens, UniProt O60674); assay: Inhibition of JAK2 using biotin-EQEDEPEGDYFEWLE- NH2 as substrate
[2] = Selectivity ratio of IC50 for JAK3 to IC50 for JAK2

Sequence of Tyrosine-protein kinase JAK2 (O60674 whole entry): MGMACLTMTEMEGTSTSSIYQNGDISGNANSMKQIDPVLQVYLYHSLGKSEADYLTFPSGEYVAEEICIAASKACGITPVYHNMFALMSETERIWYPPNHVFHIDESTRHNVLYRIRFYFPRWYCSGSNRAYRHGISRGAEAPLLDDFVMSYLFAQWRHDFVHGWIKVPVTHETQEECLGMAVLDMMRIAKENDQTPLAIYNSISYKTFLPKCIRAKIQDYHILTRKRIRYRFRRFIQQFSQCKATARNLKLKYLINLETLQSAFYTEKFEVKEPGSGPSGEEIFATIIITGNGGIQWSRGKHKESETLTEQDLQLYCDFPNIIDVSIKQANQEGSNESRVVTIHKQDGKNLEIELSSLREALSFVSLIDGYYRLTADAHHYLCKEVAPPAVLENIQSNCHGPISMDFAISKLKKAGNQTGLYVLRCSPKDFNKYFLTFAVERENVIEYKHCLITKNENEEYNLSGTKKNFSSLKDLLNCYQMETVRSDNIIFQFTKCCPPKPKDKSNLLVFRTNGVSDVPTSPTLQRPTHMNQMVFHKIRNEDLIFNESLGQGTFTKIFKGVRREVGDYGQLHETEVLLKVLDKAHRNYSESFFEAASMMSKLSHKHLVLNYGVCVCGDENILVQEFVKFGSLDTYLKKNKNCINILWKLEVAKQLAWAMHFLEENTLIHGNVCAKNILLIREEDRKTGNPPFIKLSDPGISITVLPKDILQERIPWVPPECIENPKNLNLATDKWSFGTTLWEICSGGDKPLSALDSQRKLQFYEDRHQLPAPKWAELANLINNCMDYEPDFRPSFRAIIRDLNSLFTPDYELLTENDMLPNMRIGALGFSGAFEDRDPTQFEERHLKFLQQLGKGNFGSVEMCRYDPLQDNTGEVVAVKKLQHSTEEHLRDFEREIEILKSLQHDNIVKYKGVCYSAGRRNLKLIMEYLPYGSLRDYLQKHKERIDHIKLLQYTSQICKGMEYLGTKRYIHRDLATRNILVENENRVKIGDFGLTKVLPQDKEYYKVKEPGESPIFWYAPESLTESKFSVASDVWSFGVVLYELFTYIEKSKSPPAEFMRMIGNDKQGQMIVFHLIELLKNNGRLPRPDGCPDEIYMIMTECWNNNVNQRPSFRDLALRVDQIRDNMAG

Row | SMILES | IC50 [1] | Ratio IC50 [2]
1 | NC(=O)c1cnc(NC2CCCCC2)c2c1[nH]c1ccc(-c3ccccc3)cc12 | 180 nM | > 50
2 | NC(=O)c1cnc(NC2CCCCC2)c2c1[nH]c1ccccc12 | 59 nM | > 50
3 | NC(=O)c1cnc(N2CCCC2)c2c1[nH]c1ccc(F)cc12 | 230 nM | > 50
4 | C[C@H](Nc1ncc(C(N)=O)c2[nH]c3ccc(F)cc3c12)C(C)(C)C | 52 nM | > 50
5 | NC(=O)c1cnc(NC2CCCC2)c2c1[nH]c1ccc(F)cc12 | 51 nM | > 50
6 | CNc1ncc(C(N)=O)c2[nH]c3ccc(F)cc3c12 | 210 nM | > 50
7 | NC(=O)c1cnc(NC2CCCCC2)c2c1[nH]c1cc(-c3ccccc3)ccc12 | 70 nM | > 50
8 | CCCCNc1ncc(C(N)=O)c2[nH]c3ccc(F)cc3c12 | 49 nM | > 50
9 | C[C@@H](Nc1ncc(C(N)=O)c2[nH]c3ccc(F)cc3c12)C(C)(C)C | 210 nM | > 50
10 | NC(=O)c1cnc(NC2CCC2)c2c1[nH]c1ccc(F)cc12 | 83 nM | > 50
11 | CCN(c1ncc(C(N)=O)c2[nH]c3ccc(F)cc3c12)C1CCCCC1 | 2700 nM | > 50
12 | CC(C)Cn1cc(-c2ccc3c(c2)[nH]c2c(C(N)=O)cnc(N[C@@H](C)C(C)(C)C)c23)cn1 | 41 nM | > 50
13 | CC(C)Nc1ncc(C(N)=O)c2[nH]c3ccc(F)cc3c12 | 100 nM | > 50
14 | CCCNc1ncc(C(N)=O)c2[nH]c3ccc(F)cc3c12 | 68 nM | > 50
15 | NC(=O)c1cnc(NC2CCCCC2)c2c1[nH]c1cc(-c3ccn[nH]3)ccc12 | – | > 50
16 | NC(=O)c1cnc(NC2CCCCC2)c2c1[nH]c1cccc(Cl)c12 | 110 nM | > 50
17 | CC(C)CNc1ncc(C(N)=O)c2[nH]c3ccc(F)cc3c12 | 74 nM | > 50
18 | NC(=O)c1cnc(N2CCCCC2)c2c1[nH]c1ccc(F)cc12 | 190 nM | > 50

Next, values leading:

Row | IC50 [1] | Ratio IC50 [2] | SMILES
19 | 23 nM | – | NC(=O)c1cnc(NC2CCCCC2)c2c1[nH]c1cc(-c3cc[nH]n3)ccc12
20 | 17 nM | > 50 | NC(=O)c1cnc(NC2CCCCC2)c2c1[nH]c1ccc(F)cc12
21 | 14 nM | > 50 | C[C@H](Nc1ncc(C(N)=O)c2[nH]c3cc(-c4ccc(Cl)nn4)ccc3c12)C(C)(C)C
22 | 13 nM | > 50 | NC(=O)c1cnc(NC2CCCCC2)c2c1[nH]c1cc(-c3cn[nH]c3)ccc12
23 | 19 nM | > 50 | NC(=O)c1cnc(NC2CCCCCC2)c2c1[nH]c1ccc(F)cc12
24 | 18 nM | > 50 | NC(=O)c1cnc(NC2CCOCC2)c2c1[nH]c1ccc(F)cc12
25 | 23 nM | > 50 | NC(=O)c1cnc(NC2CCCCC2)c2c1[nH]c1cc(Cl)ccc12
26 | 10 nM | > 50 | C[C@H](Nc1ncc(C(N)=O)c2[nH]c3cc(-c4ccc(N)nn4)ccc3c12)C(C)(C)C
27 | 12 nM | > 50 | C[C@H](Nc1ncc(C(N)=O)c2[nH]c3cc(-c4ccnc(N)n4)ccc3c12)C(C)(C)C
28 | 13 nM | > 50 | Cn1cc(-c2ccc3[nH]c4c(C(N)=O)cnc(NC5CCCCC5)c4c3c2)cn1
